The source of these data is patent US12325697B2 (Nimbus Clio, Inc., priority 2021, dated 2025).

Experiment [1] concerns the target Recombinant human c-Cbl (aa 47-435) (Homo sapiens (Human), UniProt P22681). The experiment can be described thus: c-Cbl Biochemical Assay (TR-FRET). The protocol:
Recombinant human c-Cbl (aa 47-435) was expressed in E. coli, purified and biotinylated in vitro. The protein was diluted to 12 nM in freshly prepared assay buffer consisting of 50 mM HEPES, pH 7.0, 100 mM NaCl, 5 mM MgCl2, 0.01% Triton-X 100, 0.01% BSA and 1 mM DTT. Recombinant human Src (aa 254-536)-[…]-Zap-70 (aa 281-297) fusion protein was expressed in E. coli and purified. Protein was diluted in assay buffer to 5-20 nM and ATP was added to 1 mM. Recombinant human UBE2D2([…]) was expressed in E. coli, purified and ubiquitinated and Bodipy labelled in vitro. Protein was diluted to 200 nM in assay buffer without MgCl2 (or Cisbio PPI buffer). Streptavidin-Terbium was added to 2 nM and EDTA to 10 mM, to provide a binding assay mix. Compounds were dissolved in DMSO and diluted to prepare a ten-point half log dilution series. 100 nl of each compound concentration was dispensed in duplicate in a 384 well black assay plate using acoustic dispensing. Wells for maximum signal controls received 100 nl of DMSO only and wells for minimum controls received 100 nl of a reference inhibitor compound at a final assay concentration of […] to produce 100% inhibition. 5 μl of diluted c-cbl enzyme was added to all wells of the assay plate and incubated at RT for 30 min. The enzyme assay was initiated by addition of 5 μl of Src-Zap/ATP mix to all wells, and the plate incubated at RT for 60-90 min. The enzyme reaction was terminated and the binding reaction was initiated by adding 10 μl of binding assay mix to all wells and incubating the plate at RT for 60 min prior to assay read. Final assay conditions consisted of 6 nM c-cbl, 2.5-10 nM Src-Zap70, 0.5 mM ATP, 1% (v/v) DMSO (enzyme reaction) and 100 nM UBE2D2([…])-Ub-FL-BODIPY, 5 mM EDTA, 1 nM Streptavidin-Tb (binding reaction). The HTRF assay signal was measured at 520 nm on an Envision plate reader, with reference signal at 485 or 620 nm. Data was normalized using maximum and minimum assay controls: % Inhibition=100-(100*((maximum control)-unknown)/(maximum control-minimum control)). A 4-parameter dose-response equation was used to fit the normalized dose-response data and derive an IC50 for test compounds.
In general terms: Time-resolved FRET reads energy transfer from a long-lived donor to a nearby acceptor.

Experiment [2] concerns the target Recombinant human Cbl-b (aa 36-427) (Homo sapiens (Human), UniProt Q13191). The experiment can be described thus: Cbl-b Biochemical Assay (TR-FRET). The settings on record: read-out: TR-FRET hCbl-b IC50. A digest of the protocol: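 Two-step TR-FRET: 6 nM biotinylated Cbl-b preincubated 30-60 min with compound, then 60 min at RT with 1-2.5 nM Src-Zap70 and 0.5 mM ATP in HEPES pH 7.0 buffer, 1% DMSO. Stopped with 5 mM EDTA plus 100 nM UBE2D2-Ub-FL-BODIPY and 1 nM streptavidin-Tb, 60 min; 520 nm signal; IC50 from 4-parameter fit.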

Sequence of Recombinant human c-Cbl (aa 47-435) (P22681 47-435): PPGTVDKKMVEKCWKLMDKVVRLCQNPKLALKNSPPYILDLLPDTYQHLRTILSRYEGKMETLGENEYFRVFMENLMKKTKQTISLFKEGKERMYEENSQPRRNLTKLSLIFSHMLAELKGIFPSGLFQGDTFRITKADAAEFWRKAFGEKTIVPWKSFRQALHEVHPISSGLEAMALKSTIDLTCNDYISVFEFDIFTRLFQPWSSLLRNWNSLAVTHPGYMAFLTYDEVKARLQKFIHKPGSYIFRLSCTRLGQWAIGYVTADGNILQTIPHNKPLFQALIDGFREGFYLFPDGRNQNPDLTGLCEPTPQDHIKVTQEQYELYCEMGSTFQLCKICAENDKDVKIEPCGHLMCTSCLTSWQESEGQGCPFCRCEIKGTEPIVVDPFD
Sequence of Recombinant human Cbl-b (aa 36-427) (Q13191 36-427): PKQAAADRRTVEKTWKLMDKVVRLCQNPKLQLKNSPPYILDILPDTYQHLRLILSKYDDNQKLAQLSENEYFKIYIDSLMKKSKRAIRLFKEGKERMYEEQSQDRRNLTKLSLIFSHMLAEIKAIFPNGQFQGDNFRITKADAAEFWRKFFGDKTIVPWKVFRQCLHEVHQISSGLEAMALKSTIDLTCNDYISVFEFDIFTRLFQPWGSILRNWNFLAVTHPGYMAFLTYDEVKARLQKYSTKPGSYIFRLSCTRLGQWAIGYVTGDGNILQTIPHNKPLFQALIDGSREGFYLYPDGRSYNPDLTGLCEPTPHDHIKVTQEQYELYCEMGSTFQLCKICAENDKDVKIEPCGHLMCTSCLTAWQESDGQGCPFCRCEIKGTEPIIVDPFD

As a reminder, the IC50 is the concentration needed to halve the response being measured. With `COC[C@H]1CCCN1Cc1cc(F)c2c(c1)C(=O)N(c1cc(-c3ccc(C#N)cc3-c3nncn3C)cc(C3CC3)n1)C2` [APB-2, 4-[2-Cyclopropyl-6-(4-fluoro-6-{[(2R)-2-(methoxymethyl)pyrrolidin-1-yl]methyl}-1-oxo-3H-isoindol-2-yl)pyridin-4-yl]-3-(4-methyl-1,2,4-triazol-3-yl)benzonitrile], the half-maximal inhibitory concentration (IC50) in experiment [1] and in experiment [2] was ≤ 200 nM throughout.
In the case of `Cn1cnnc1-c1cc(C#N)ccc1-c1cc(C2CC2)nc(N2Cc3ccc(CN[C@H]4CCOC4)cc3C2=O)c1` [ANQ-2, 4-[2-Cyclopropyl-6-(1-oxo-6-{[(3S)-oxolan-3-ylamino]methyl}-3H-isoindol-2-yl)pyridin-4-yl]-3-(4-methyl-1,2,4-triazol-3-yl)benzonitrile], the IC50 in experiment [1] and in experiment [2] was ≤ 200 nM each time.
Consider `CNCCNCc1ccc2c(c1)C(=O)N(c1cc(-c3ccc(C#N)cc3-c3nncn3C)cc(C3CC3)n1)C2` [ALZ-3, 4-{2-Cyclopropyl-6-[6-({[2-(methylamino)ethyl]amino}methyl)-1-oxo-3H-isoindol-2-yl]pyridin-4-yl}-3-(4-methyl-1,2,4-triazol-3-yl)benzonitrile], for which the IC50 in experiment [1] and in experiment [2] was ≤ 200 nM throughout.
For the compound `C[C@@H]1[C@@H](O)CCN1Cc1cc(F)c2c(c1)C(=O)N(c1cc(-c3ccc(C#N)cc3-c3nncn3C)cc(C3CC3)n1)C2` [ANC-2, 4-[2-Cyclopropyl-6-(4-fluoro-6-{[(2R,3S)-3-hydroxy-2-methylpyrrolidin-1-yl]methyl}-1-oxo-3H-isoindol-2-yl)pyridin-4-yl]-3-(4-methyl-1,2,4-triazol-3-yl)benzonitrile], the half-maximal inhibitory concentration (IC50) in experiment [1] and in experiment [2] was ≤ 200 nM in each case.
As for `CCOc1cc(-c2ccc(C#N)cc2-c2nncn2C)cc(N2Cc3ccc(CNCC4(F)CCC4)cc3C2=O)n1` [AKJ-1, 4-{2-Ethoxy-6-[6-({[(1-fluorocyclobutyl)methyl]amino}methyl)-1-oxo-3H-isoindol-2-yl]pyridin-4-yl}-3-(4-methyl-1,2,4-triazol-3-yl)benzonitrile], the IC50 in experiment [1] and in experiment [2] was ≤ 200 nM throughout.
As to `CCOc1cc(-c2ccc(F)cc2-c2nncn2C)cc(N2Cc3c(OC)cc(CO)cc3C2=O)n1` [AJC-1, 2-(6-Ethoxy-4-(4-fluoro-2-(4-methyl-4H-1,2,4-triazol-3-yl)phenyl)pyridin-2-yl)-6-(hydroxymethyl)-4-methoxyisoindolin-1-one], the IC50 in experiment [1] and in experiment [2] was ≤ 200 nM throughout.
With `Cn1cnnc1-c1cc(Cl)ccc1-c1cc(C2CC2)nc(N2Cc3ccc(CO)cc3C2=O)c1` [AIU-1, 2-(4-(4-Chloro-2-(4-methyl-4H-1,2,4-triazol-3-yl)phenyl)-6-cyclopropylpyridin-2-yl)-6-(hydroxymethyl)isoindolin-1-one], the IC50 in experiment [1] and in experiment [2] was ≤ 200 nM in each case.
In the case of `CC(=O)NCCNCc1ccc2c(c1)C(=O)N(c1cc(-c3ccc(C#N)cc3-c3nncn3C)cc(C3CC3)n1)C2` [AMB-1, N-(2-{[(2-{4-[4-Cyano-2-(4-methyl-1,2,4-triazol-3-yl)phenyl]-6-cyclopropylpyridin-2-yl}-3-oxo-1H-isoindol-5-yl)methyl]amino}ethyl)acetamide], the IC50 in experiment [1] and in experiment [2] was ≤ 200 nM in each case.
Take `COC[C@@H](C)NCc1cc(F)c2c(c1)C(=O)N(c1cc(-c3ccc(C#N)cc3-c3nncn3C)cc(C3CC3)c1)C2` [ALG-3, 3′-cyclopropyl-5′-[4-fluoro-6-({[(2R)-1-methoxypropan-2-yl]amino}methyl)-1-oxo-3H-isoindol-2-yl]-2-(4-methyl-1,2,4-triazol-3-yl)-[1,1′-biphenyl]-4-carbonitrile]: the IC50 in experiment [1] and in experiment [2] was ≤ 200 nM each time.
On to `Cn1cnnc1-c1cc(C#N)ccc1-c1cc(C2CC2)nc(N2Cc3c(cc(CO)c(F)c3F)C2=O)c1` [ALX-9, 4-{2-Cyclopropyl-6-[4,5-difluoro-6-(hydroxymethyl)-1-oxo-3H-isoindol-2-yl]pyridin-4-yl}-3-(4-methyl-1,2,4-triazol-3-yl)benzonitrile], for which the concentration for half-maximal inhibition (IC50) in experiment [1] and in experiment [2] was ≤ 200 nM throughout.
In the case of `CC(C)OCCNCc1ccc2c(c1)C(=O)N(c1cc(-c3ccc(C#N)cc3-c3nncn3C)cc(C3CC3)n1)C2` [AIL-3, 4-[2-Cyclopropyl-6-(6-{[(2-isopropoxyethyl)amino]methyl}-1-oxo-3H-isoindol-2-yl)pyridin-4-yl]-3-(4-methyl-1,2,4-triazol-3-yl)benzonitrile], the half-maximal inhibitory concentration (IC50) in experiment [1] and in experiment [2] was ≤ 200 nM in each case.
As for `Cn1cnnc1-c1cc(C#N)ccc1-c1cc(C2CC2)nc(N2Cc3c(cc(CNCC4(O)CCC4)c(F)c3F)C2=O)c1` [AOX-1, 4-{2-Cyclopropyl-6-[4,5-difluoro-6-({[(1-hydroxycyclobutyl)methyl]amino}methyl)-1-oxo-3H-isoindol-2-yl]pyridin-4-yl}-3-(4-methyl-1,2,4-triazol-3-yl)benzonitrile], the IC50 in experiment [1] and in experiment [2] was ≤ 200 nM in each case.
Take `Cn1cnnc1-c1cc(C#N)ccc1-c1cc(C2CC2)nc(N2Cc3ccc(C(C)(C)NC4CCC4)cc3C2=O)c1` [AOI-1, 4-(2-{6-[2-(Cyclobutylamino)propan-2-yl]-1-oxo-3H-isoindol-2-yl}-6-cyclopropylpyridin-4-yl)-3-(4-methyl-1,2,4-triazol-3-yl)benzonitrile]: the 50% inhibitory concentration (IC50) in experiment [1] and in experiment [2] was ≤ 200 nM each time.
`CO[C@@H](C)[C@H](C)NCc1cc(F)c2c(c1)C(=O)N(c1cc(-c3ccc(C#N)cc3-c3nncn3C)cc(C3CC3)n1)C2` [AMD-2, 4-{2-Cyclopropyl-6-[4-fluoro-6-({[(2S,3S)-3-methoxybutan-2-yl]amino}methyl)-1-oxo-3H-isoindol-2-yl]pyridin-4-yl}-3-(4-methyl-1,2,4-triazol-3-yl)benzonitrile]: the IC50 in experiment [1] and in experiment [2] was ≤ 200 nM in each case.
With `CC[C@@H](O)CNCc1ccc2c(c1)C(=O)N(c1cc(-c3ccc(C#N)cc3-c3nncn3C)cc(C3CC3)n1)C2` [AIP-2, 4-{2-Cyclopropyl-6-[6-({[(2R)-2-hydroxybutyl]amino}methyl)-1-oxo-3H-isoindol-2-yl]pyridin-4-yl}-3-(4-methyl-1,2,4-triazol-3-yl)benzonitrile], the IC50 in experiment [1] and in experiment [2] was ≤ 200 nM each time.
For `Cn1cnnc1-c1cc(C#N)ccc1-c1cc(C2CC2)cc(N2Cc3ccc(CO)cc3C2=O)c1` [AJP-7, 3′-Cyclopropyl-5′-(6-(hydroxymethyl)-1-oxoisoindolin-2-yl)-2-(4-methyl-4H-1,2,4-triazol-3-yl)-[1,1′-biphenyl]-4-carbonitrile], the IC50 in experiment [1] lay in the range of 1000 to 10000 nM; in experiment [2], 200 to 1000 nM.
Taken in the same sequence, the figures for `COCCNCc1cc(F)c2c(c1)C(=O)N(c1cc(-c3ccc(C#N)cc3-c3nncn3C)cc(C3CC3)n1)C2` [AIO-9, 4-[2-Cyclopropyl-6-(4-fluoro-6-{[(2-methoxyethyl)amino]methyl}-1-oxo-3H-isoindol-2-yl)pyridin-4-yl]-3-(4-methyl-1,2,4-triazol-3-yl)benzonitrile] were ≤ 200 nM and ≤ 200 nM.
For the compound `Cn1cnnc1-c1cc(C#N)ccc1-c1cc(C2CC2)nc(N2Cc3c(F)cc(CN4CC[C@@H]5OCC[C@@H]54)cc3C2=O)c1` (single isomer, unassigned) [ANG-1], the IC50 in experiment [1] and in experiment [2] was ≤ 200 nM throughout.
Regarding `CN1CCC[C@H]1COCc1cc2c(c(C(F)(F)F)c1)CN(c1cc(-c3ccc(F)cc3-c3nncn3C)cc(C3CC3)n1)C2=O` [AHR-4, (S)-2-(6-Cyclopropyl-4-(4-fluoro-2-(4-methyl-4H-1,2,4-triazol-3-yl)phenyl)pyridin-2-yl)-6-(((1-methylpyrrolidin-2-yl)methoxy)methyl)-4-(trifluoromethyl)isoindolin-1-one], the IC50 in experiment [1] and in experiment [2] was ≤ 200 nM in each case.
Regarding `CO[C@H](C)CNCc1ccc2c(c1)C(=O)N(c1cc(-c3ccc(C#N)cc3-c3nncn3C)cc(C3CC3)n1)C2` [AID-2, 4-{2-Cyclopropyl-6-[6-({[(2R)-2-methoxypropyl]amino}methyl)-1-oxo-3H-isoindol-2-yl]pyridin-4-yl}-3-(4-methyl-1,2,4-triazol-3-yl)benzonitrile], the IC50 in experiment [1] and in experiment [2] was ≤ 200 nM in each case.
